Assay results from patent EP4233857A1, “BIOACTIVE COMPOUNDS OBTAINED FROM CY[…] SP. LEGE 181152” (CIIMAR - Centro Interdisciplinar de Investigação Marinha e …, priority 2022, dated 2023).
pIC50: −log10 of the molar value. Entries after “also recorded” stand apart in the source; their conditions may differ.

Legend:
[1] = test system: human colorectal carcinoma cell line, HCT 116; assay: Cytotoxicity on 3D cancer spheroids, cell viability by acid phosphatase assay; assay type: cell-based
Description: The cytotoxicity of the fractions A to H2 was tested against the 3D model of the human colorectal carcinoma cell line, HCT 116. Colorectal cancer has one of the highest incidences among cancer diagnosis and is also one of cancers with the highest mortality rate. Over the years, the 3D cell models have taken over drug screening due to their biologically relevance when compared to the more conventional monolayer model. Three dimensional spheroids are more representative of the microenvironment of an in vivo tumour, with interactions between cells in the different layers - a necrotic core, an intermediate quiescent layer, and a proliferative outer layer.
Cells were seeded in ULA 96 well plates and incubated for 5 days for spheroid formation. After formation, spheroids were exposed to the fractions (25 µg/mL) for 96h. Cell viability was assessed by the acid phosphatase assay. In viable cells these intracellular enzymes hydrolyse […], which can be quantified colorimetrically at 405 nm. The results were expressed as the percentage of cell viability normalized to the solvent control (DMSO). […]

[2] = test system: HCT 116 human colon carcinoma cells; assay: Cytotoxicity on monolayer (2D) cells; assay type: cell-based; conditions: 2D assay (monolayer)
Description: The cytotoxic effect of phormidolide D (3) was tested against HCT 116 human colon carcinoma cells in monolayer (2D) and spheroid models (Figure 11). […] The difference of the IC50 values between the two cell models is commonly reported in the literature. Cancer spheroids tend to be more resistant to treatment than monolayer cells, and thus tend to present higher IC50 values. However, the cytotoxic effects in cancer spheroids are more realistic, because in this culture model, drug diffusion and cell proliferation effects are being tested. The results obtained for compound 3 are very interesting: despite its molecular weight (1064 g/mol) it can still penetrate the tightly packed cells of the outer layer of the spheroid, leading to a decrease in the cell viability in relevant concentrations (Figure 9). […]

[3] = test system: brine shrimp; conditions: cited from earlier work
[4] = test system: panel of 60 human cancer cell lines; conditions: Williamson et al., 2002; cited from earlier work

Substance | pIC50 [1] | pIC50 [2] | LD50 [3] [µM] | cytotoxicity against a panel of 60 cancer cells [4]
phormidolide D | 4.87 | 5.92 | – | –
phormidolide A | – | – | 1.5 | noncytotoxic; also recorded: not considered active
